Experimental data taken from the supplement of paper PMC10307832.

Experiments:
Assay in all cases: relative viability (nuclei count vs DMSO), 5 days (fraction); higher = more cells survive
[1] = compound: C[C@]12O[C@H](C[C@]1(O)CO)n1c3ccccc3c3c4c(c5c6ccccc6n2c5c31)CNC4=O [Lestaurtinib] + CC1(C)CCC(c2ccc(Cl)cc2)=C(CN2CCN(c3ccc(C(=O)NS(=O)(=O)c4ccc(N[C@H](CCN5CCOCC5)CSc5ccccc5)c(S(=O)(=O)C(F)(F)F)c4)cc3)CC2)C1 [Navitoclax] (partner 0.5 µM)
Method in brief: (§1)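 Values are medians from duplicate plates. Each reflects relative viability, defined as the nuclei count of treated wells over that of vehicle wells. Lung cancer cell lines in 1536-well plates were pin-tool dosed one day after seeding with one drug alone or with a fixed anchor-drug dose plus five library-drug doses (not always all listed) in √10 steps, then fixed, stained and imaged at 4× after 5 days.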

[2] = compound: C[C@]12O[C@H](C[C@]1(O)CO)n1c3ccccc3c3c4c(c5c6ccccc6n2c5c31)CNC4=O [Lestaurtinib] + C[C@]1(O)C[C@@H](c2nc(-c3ccc4ccc(-c5ccccc5)nc4c3)c3c(N)nccn32)C1 [Linsitinib] (partner 1 µM)
Method in brief: as §1

[3] = compound: C1/C(=C\C2=CC=CS2)/C(=O)/C(=C/C3=CC=CS3)/C1 + CS(=O)(=O)N1CCN(Cc2cc3nc(-c4cccc5[nH]ncc45)nc(N4CCOCC4)c3s2)CC1 [Pictilisib] (partner 1 µM)
Method in brief: as §1

[4] = compound: C1=CC(=CC=C1C2=CC(=C(S2)NC(=O)N)C(=O)N)F [TPCA-1] + CS(=O)(=O)CCNCc1ccc(-c2ccc3ncnc(Nc4ccc(OCc5cccc(F)c5)c(Cl)c4)c3c2)o1 [Lapatinib] (partner 2 µM)
Method in brief: as §1

Cell Line: NCI-H1666
- relative viability ([1]; first compound 0.005 µM): 1.18
- relative viability ([1]; first compound 0.01581 µM): 1.05
- relative viability ([1]; first compound 0.05 µM): 1.08
- relative viability ([1]; first compound 0.1581 µM): 0.581
- relative viability ([1]; first compound 0.5 µM): 0.355
- relative viability ([2]; first compound 0.005 µM): 0.926
- relative viability ([2]; first compound 0.01581 µM): 1.04
- relative viability ([2]; first compound 0.05 µM): 0.847
- relative viability ([2]; first compound 0.1581 µM): 0.475
- relative viability ([2]; first compound 0.5 µM): 0.501
- relative viability ([3]; first compound 0.2 µM): 0.587
- relative viability ([3]; first compound 0.6325 µM): 0.281
- relative viability ([3]; first compound 2 µM): 0.408
- relative viability ([3]; first compound 6.325 µM): 0.273
- relative viability ([3]; first compound 20 µM): 0.309
- relative viability ([4]; first compound 0.04 µM): 0.539
- relative viability ([4]; first compound 0.1265 µM): 0.569
- relative viability ([4]; first compound 0.4 µM): 0.865
- relative viability ([4]; first compound 1.265 µM): 0.707
- relative viability ([4]; first compound 4 µM): 0.631

Cell Line: NCI-H1915
- relative viability ([1]; first compound 0.005 µM): 0.766
- relative viability ([1]; first compound 0.01581 µM): 0.801
- relative viability ([1]; first compound 0.05 µM): 0.774
- relative viability ([1]; first compound 0.1581 µM): 0.724
- relative viability ([1]; first compound 0.5 µM): 0.503
- relative viability ([2]; first compound 0.005 µM): 1.21
- relative viability ([2]; first compound 0.01581 µM): 1.09
- relative viability ([2]; first compound 0.05 µM): 1.11
- relative viability ([2]; first compound 0.1581 µM): 0.797
- relative viability ([2]; first compound 0.5 µM): 0.565
- relative viability ([3]; first compound 0.2 µM): 0.953
- relative viability ([3]; first compound 0.6325 µM): 0.896
- relative viability ([3]; first compound 2 µM): 0.981
- relative viability ([3]; first compound 6.325 µM): 0.839
- relative viability ([3]; first compound 20 µM): 0.788
- relative viability ([4]; first compound 0.04 µM): 1.06
- relative viability ([4]; first compound 0.1265 µM): 0.984
- relative viability ([4]; first compound 0.4 µM): 1.03
- relative viability ([4]; first compound 1.265 µM): 0.875
- relative viability ([4]; first compound 4 µM): 0.813

Cell Line: NCI-H2009
- relative viability ([1]; first compound 0.005 µM): 1.16
- relative viability ([1]; first compound 0.01581 µM): 1.25
- relative viability ([1]; first compound 0.05 µM): 1.06
- relative viability ([1]; first compound 0.1581 µM): 1.3
- relative viability ([1]; first compound 0.5 µM): 0.22
- relative viability ([2]; first compound 0.005 µM): 1.25
- relative viability ([2]; first compound 0.01581 µM): 1.23
- relative viability ([2]; first compound 0.05 µM): 1.09
- relative viability ([2]; first compound 0.1581 µM): 1.01
- relative viability ([2]; first compound 0.5 µM): 0.581
- relative viability ([3]; first compound 0.2 µM): 0.911
- relative viability ([3]; first compound 0.6325 µM): 0.959
- relative viability ([3]; first compound 2 µM): 0.833
- relative viability ([3]; first compound 6.325 µM): 0.691
- relative viability ([3]; first compound 20 µM): 0.846
- relative viability ([4]; first compound 0.04 µM): 1.12
- relative viability ([4]; first compound 0.1265 µM): 0.886
- relative viability ([4]; first compound 0.4 µM): 0.926
- relative viability ([4]; first compound 1.265 µM): 0.444
- relative viability ([4]; first compound 4 µM): 0.294

Cell Line: ChaGo-K-1
- relative viability ([1]; first compound 0.005 µM): 1.03
- relative viability ([1]; first compound 0.01581 µM): 1.59
- relative viability ([1]; first compound 0.05 µM): 0.962
- relative viability ([1]; first compound 0.1581 µM): 0.603
- relative viability ([1]; first compound 0.5 µM): 0.497
- relative viability ([3]; first compound 0.2 µM): 0.653
- relative viability ([3]; first compound 0.6325 µM): 0.699
- relative viability ([3]; first compound 2 µM): 0.756
- relative viability ([3]; first compound 6.325 µM): 0.487
- relative viability ([3]; first compound 20 µM): 0.538

Cell Line: COR-L 105
- relative viability ([1]; first compound 0.005 µM): 0.803
- relative viability ([1]; first compound 0.01581 µM): 0.746
- relative viability ([1]; first compound 0.05 µM): 0.595
- relative viability ([1]; first compound 0.1581 µM): 0.643
- relative viability ([1]; first compound 0.5 µM): 0.322
- relative viability ([2]; first compound 0.005 µM): 1.11
- relative viability ([2]; first compound 0.01581 µM): 0.873
- relative viability ([2]; first compound 0.05 µM): 0.692
- relative viability ([2]; first compound 0.1581 µM): 0.502
- relative viability ([2]; first compound 0.5 µM): 0.337
- relative viability ([3]; first compound 0.2 µM): 0.409
- relative viability ([3]; first compound 0.6325 µM): 0.364
- relative viability ([3]; first compound 2 µM): 0.386
- relative viability ([3]; first compound 6.325 µM): 0.327
- relative viability ([3]; first compound 20 µM): 0.356
- relative viability ([4]; first compound 0.04 µM): 0.379
- relative viability ([4]; first compound 0.1265 µM): 0.368
- relative viability ([4]; first compound 0.4 µM): 0.384
- relative viability ([4]; first compound 1.265 µM): 0.272
- relative viability ([4]; first compound 4 µM): 0.268

Cell Line: NCI-H2170
- relative viability ([1]; first compound 0.005 µM): 0.378
- relative viability ([1]; first compound 0.01581 µM): 0.393
- relative viability ([1]; first compound 0.05 µM): 0.368
- relative viability ([1]; first compound 0.1581 µM): 0.442
- relative viability ([1]; first compound 0.5 µM): 0.263
- relative viability ([3]; first compound 0.2 µM): 0.334
- relative viability ([3]; first compound 0.6325 µM): 0.341
- relative viability ([3]; first compound 2 µM): 0.31
- relative viability ([3]; first compound 6.325 µM): 0.278
- relative viability ([3]; first compound 20 µM): 0.313
- relative viability ([4]; first compound 0.04 µM): 0.263
- relative viability ([4]; first compound 0.1265 µM): 0.272
- relative viability ([4]; first compound 0.4 µM): 0.261
- relative viability ([4]; first compound 1.265 µM): 0.284
- relative viability ([4]; first compound 4 µM): 0.248

Cell Line: A549
- relative viability ([1]; first compound 0.005 µM): 1.28
- relative viability ([1]; first compound 0.01581 µM): 1.27
- relative viability ([1]; first compound 0.05 µM): 0.948
- relative viability ([1]; first compound 0.1581 µM): 0.615
- relative viability ([1]; first compound 0.5 µM): 0.0764
- relative viability ([2]; first compound 0.005 µM): 0.621
- relative viability ([2]; first compound 0.01581 µM): 0.596
- relative viability ([2]; first compound 0.05 µM): 0.229
- relative viability ([2]; first compound 0.1581 µM): 0.148
- relative viability ([2]; first compound 0.5 µM): 0.174
- relative viability ([3]; first compound 0.2 µM): 0.486
- relative viability ([3]; first compound 0.6325 µM): 0.511
- relative viability ([3]; first compound 2 µM): 0.447
- relative viability ([3]; first compound 20 µM): 0.456
- relative viability ([4]; first compound 0.04 µM): 1.03
- relative viability ([4]; first compound 0.1265 µM): 0.922
- relative viability ([4]; first compound 0.4 µM): 1.1
- relative viability ([4]; first compound 1.265 µM): 0.959
- relative viability ([4]; first compound 4 µM): 0.969

Cell Line: SW 1573
- relative viability ([1]; first compound 0.005 µM): 1.14
- relative viability ([1]; first compound 0.01581 µM): 1.01
- relative viability ([1]; first compound 0.05 µM): 0.851
- relative viability ([1]; first compound 0.1581 µM): 0.699
- relative viability ([1]; first compound 0.5 µM): 0.68
- relative viability ([2]; first compound 0.005 µM): 0.796
- relative viability ([2]; first compound 0.01581 µM): 0.841
- relative viability ([2]; first compound 0.05 µM): 0.695
- relative viability ([2]; first compound 0.1581 µM): 0.615
- relative viability ([2]; first compound 0.5 µM): 0.222
- relative viability ([3]; first compound 0.2 µM): 0.54
- relative viability ([3]; first compound 0.6325 µM): 0.523
- relative viability ([3]; first compound 2 µM): 0.551
- relative viability ([3]; first compound 6.325 µM): 0.377
- relative viability ([3]; first compound 20 µM): 0.512
- relative viability ([4]; first compound 0.04 µM): 0.829
- relative viability ([4]; first compound 0.1265 µM): 1.04
- relative viability ([4]; first compound 0.4 µM): 1.17
- relative viability ([4]; first compound 1.265 µM): 1.18
- relative viability ([4]; first compound 4 µM): 1.19
